Paper PMC10301603, “Potent and Selective Benzothiazole-Based Antimitotics with Improved Water Solubility: Design, Synthesis, and Evaluation as Novel Anticancer Agents” (Pharmaceutics, 2023)
≈ marks a conversion by molar mass, not a printed value.

What was measured:
[1] = Aqueous solubility, shake-flask method; assay type: physicochemical; conditions: pH 7.0 buffer, pH 7, aqueous buffer, thermodynamic from solid, shaking flask, buffered media at pH 7.0, mean of three
Procedure: The aqueous solubility of compounds was measured in a Helios Alfa Spectrophotometer. Calibration lines at the maximum wavelength of absorbance were determined for each compound. Then, following the shake-flask method, a suspension of 5 mg of each compound in 500 µL in pH 7.0 buffer was stirred for 72 h at room temperature. The mixture was then filtrated over a […] filter to remove the insoluble fraction. The concentration of the compound in the resulting saturated solution was determined via UV absorbance measurement and interpolation in the calibration line. The aqueous solubility values are given as the average of three independent measurements.

bovine brain tubulin = assay: Tubulin polymerization inhibition (turbidimetry); assay type: biochemical; conditions: for % TPI: compounds tested at 10 µM, with respect to the negative control; for IC50: concentration inhibiting 50% of microtubular protein polymerization in vitro, read-out: TPI IC50; for Tubulin polymerization inhibition (in words): 10 µM
Procedure: Microtubular protein was isolated from calf brain following the modified Shelanski method, based on temperature-dependent assembly/disassembly of tubulin [45]. The protein was stored at −80 °C, and its concentration was determined using the Bradford method before each use. Tubulin polymerization, which occurs when heating a buffered tubulin sample from 4 °C to 37 °C, is accompanied by an increase in the absorbance (at 450 nm) of the sample that was monitored by a Helios α spectrophotometer. […] Then, the temperature was adjusted to 4 °C, and the temperature being shifted to 37 °C allowed for the assembly process of tubulin. The turbidity caused by tubulin polymerization was measured by the increased absorbance at 450 nm. The increase in absorbance obtained for the control sample (without the ligand), which we considered to be 100% tubulin polymerization (0% inhibition), compared with the increase in absorbance determined for the sample containing ligands yielded the degree of tubulin polymerization inhibition (TPI), which is expressed as a percentage value. For the compounds displaying TPI values over 50% at 10 µM, the IC50 value for TPI was calculated. Measurements were performed in triplicate in two independent experiments using microtubular protein from different preparations.

HT-29 cells [2] = assay: Cell growth inhibition (MTT) in the presence of 10 µM verapamil (sensitivity to MDR efflux pumps); assay type: cell-based, human; conditions: 10 µM verapamil (P-gp/MDR1 inhibitor)
Procedure: (§1) Cells were plated in 96-well plates (100 µL/well) at the following concentrations: 30,000 cells/mL (HepG2, U87 MG, T98G, C6, LNCaP, PC3, and HT-29 cells) or 15,000 cells/mL (HeLa and MCF-7 cells). Previous experiments were performed to choose the optimal cell concentration (70–80% confluence) and avoid the formation of cell aggregates. Cells were incubated in complete DMEM or RPMI 1640 medium (see above) at 37 °C and 5% CO2 atmosphere for 24 h to allow for cell attachment to the plate. Then, every compound was added (10 µL/well) to a final concentration of 10 µM. Non-treated cells were used as negative controls. The antiproliferative activity of compounds was measured 72 h after the treatments using the MTT reagent (3-[4,5-dimethylthiazol-2-yl]-2,5-diphenyltetrazolium bromide), (MTT Thiazolyl Blue Tetrazolium Bromide, Sigma-Aldrich, St. Louis, MO, USA) dissolved in PBS at 5 mg/mL. Compounds showing antiproliferative effects at 10 µM were selected to determine their IC50 value. For that purpose, compounds were used at different concentrations ranging from 10^−10 to 10^−2 M. Measurements were performed in triplicate, and each experiment was repeated three times. The IC50 value was determined for every compound using Origin software (OriginLab, Washington, USA). To study the sensitivity to MDR efflux pumps of compounds, the IC50 values were determined by following the same procedure but in the presence of verapamil (final concentration of 10 µM).

U87MG cells = assay: Cell growth inhibition assay (MTT); assay type: cell-based, human; conditions: Homo sapiens, U-87 MG; MTT, 72 h after drug exposure
Procedure: (§2) The cell lines were obtained from ATTC (Manassas, VA, USA). HeLa (human cervix epithelioid carcinoma), MCF7 (human breast adenocarcinoma), HepG2 (human hepatocellular carcinoma), U87 MG (human glioblastoma), T98G (human glioblastoma), GL261 (murine glioma), LNCaP (human prostate cancer), PC-3 (human prostate cancer), and HEK-293 (human embryonic kidney) were grown in Dulbecco’s modified Eagle’s medium (DMEM, Gibco, Waltham, MA, USA), supplemented with 10% (v/v) heat-inactivated fetal bovine serum (HIFBS, Sigma-Aldrich, St. Louis, MO, USA)), 2 mM L-glutamine, 100 μg/mL streptomycin, and 100 units/mL penicillin (Gibco, Waltham, MA, USA) at 37 °C in saturated humidity atmosphere containing 95% air and 5% CO2. Cell line HT-29 (human colon carcinoma) was grown in Roswell Park Memorial Institute (RPMI) 1640 medium (Gibco, Whaltman, MA, USA) supplemented with 10% HIFBS, 100 μg/mL streptomycin, and 100 units/mL penicillin (Gibco, Whaltman, MA, USA) at 37 °C in humidified 95% air and 5% CO2 atmosphere. MycoAlert kit (Lonza, Norwest, Australia) was used to routinely check the presence of mycoplasma, and only mycoplasma-free cells were employed in the experiments.
as §1

LNCaP cells = assay: Cell growth inhibition assay (MTT); assay type: cell-based, human; conditions: Homo sapiens, LNCaP, 72 h after drug exposure
Procedure: as §2, §1

T98G cells = assay: Cell growth inhibition assay (MTT); assay type: cell-based, human; conditions: Homo sapiens, T98G, 72 h after drug exposure
Procedure: as §2, §1

HT-29 cells [3] = assay: Cell growth inhibition assay (MTT); assay type: cell-based, human; conditions: Homo sapiens, HT-29, 72 h after drug exposure
Procedure: as §2, §1

MCF7 cells = assay: Cell growth inhibition assay (MTT); assay type: cell-based, human; conditions: Homo sapiens, MCF7; MTT, 72 h after drug exposure
Procedure: as §2, §1

HeLa cells = assay: Cell growth inhibition assay (MTT); assay type: cell-based, human; conditions: Homo sapiens, HeLa, 72 h after drug exposure
Procedure: as §2, §1

HepG2 cells = assay: Cell growth inhibition assay (MTT); assay type: cell-based, human; conditions: Homo sapiens, HepG2, 72 h after drug exposure
Procedure: as §2, §1

PC-3 cells = assay: Cell growth inhibition assay (MTT); assay type: cell-based, human; conditions: Homo sapiens, PC-3, 72 h after drug exposure
Procedure: as §2, §1

HEK-293 cells = assay: Cell growth inhibition assay (MTT), non-tumorigenic cells; assay type: cell-based, human; conditions: Homo sapiens, HEK293, 72 h after drug exposure, non-tumorigenic cell line
Procedure: as §2, §1

GL261 cells = assay: Cell growth inhibition assay (MTT); assay type: cell-based, murine; conditions: Mus musculus, GL261, 72 h after drug exposure
Procedure: as §2, §1

solubility at 72 h [1] [µg/mL] | IC50 (bovine brain tubulin) [µM] | IC50 (HT-29 cells [2]) [µM] | IC50 (U87MG cells) [µM] | IC50 (LNCaP cells) [µM] | IC50 (HT-29 cells [3]) [µM] | IC50 (MCF7 cells) [µM] | IC50 (HeLa cells) [µM] | IC50 (HepG2 cells) [µM] | IC50 (PC-3 cells) [µM] | SMILES | % TPI (bovine brain tubulin) [%] | IC50 (T98G cells) [µM] | IC50 (HEK-293 cells) [µM] | IC50 (GL261 cells) [µM] | Tubulin polymerization inhibition (in words) (bovine brain tubulin)
93 (≈ 297 µM) | 8.1 | 1.48 | 0.632 | 1.39 | 1.52 | 0.911 | 1.03 | 0.813 | 1.62 | COc1ccc2nc(N(Cc3cccnc3)C(C)=O)sc2c1 [Compound 20, N-(6-methoxybenzo[d]thiazol-2-yl)-N-(pyridin-3-ylmethyl)acetamide] | 57 | 0.825 | 9.9 | 0.622 | –
86 (≈ 313 µM) | > 10 | > 10 | > 10 | > 10 | > 10 | > 10 | 9.33 | > 10 | > 10 | COc1ccc2nc(NCc3[nH]cnc3C)sc2c1 [Compound 4, 6-methoxy-N-((4-methyl-1H-imidazol-5-yl)methyl)benzo[d]thiazol-2-amine] | 0 | > 10 | > 10 | > 10 | not able to inhibit tubulin polymerization
< 9 | > 10 | > 10 | > 10 | > 10 | > 10 | > 10 | > 10 | > 10 | > 10 | CCNC(=O)N(Cc1ccc2ccccc2c1)c1nc2ccc(OC)cc2s1 [Compound 12, 3-ethyl-1-(6-methoxybenzo[d]thiazol-2-yl)-1-(naphthalen-2-ylmethyl)urea] | 0 | > 10 | > 10 | > 10 | not able to inhibit tubulin polymerization
< 9 | > 10 | > 10 | > 10 | > 10 | > 10 | > 10 | > 10 | > 10 | > 10 | COc1ccc2nc(N(Cc3ccc4ccccc4c3)C(C)=O)sc2c1 [Compound 24, N-(6-methoxybenzo[d]thiazol-2-yl)-N-(naphthalen-2-ylmethyl)acetamide] | 0 | > 10 | > 10 | > 10 | not able to inhibit tubulin polymerization
– | > 10 | > 10 | 6.54 | 4.32 | > 10 | 4.23 | 3.71 | 4.51 | > 10 | COc1ccc2nc(NCc3ccc4ccccc4c3)sc2c1 [Compound 6, 6-methoxy-N-(naphthalen-2-ylmethyl)benzo[d]thiazol-2-amine] | 7 | > 10 | > 10 | 6.25 | not able to inhibit tubulin polymerization
– | 4.4 | – | 0.375 | 0.325 | 0.213 | 0.18 | 0.388 | 0.327 | 0.422 | COc1ccc(S(=O)(=O)Nc2cccnc2Nc2ccc(O)cc2)cc1 [ABT-751, reference compound] | – | 0.421 | 1.23 | 0.309 | –
13 (≈ 41.6 µM) | > 10 | > 10 | 7.51 | 4.95 | > 10 | 6.3 | 3.9 | 4.29 | > 10 | COc1ccc2nc(N(Cc3ccccc3)C(C)=O)sc2c1 [Compound 23, N-benzyl-N-(6-methoxybenzo[d]thiazol-2-yl)acetamide] | 3 | > 10 | > 10 | 6.33 | –
16 (≈ 46.9 µM) | > 10 | > 10 | 2.91 | 2.37 | > 10 | 2.04 | 2.71 | 2.45 | > 10 | CCNC(=O)N(Cc1ccccc1)c1nc2ccc(OC)cc2s1 [Compound 11, 1-benzyl-3-ethyl-1-(6-methoxybenzo[d]thiazol-2-yl)urea] | 6 | > 10 | > 10 | 2.93 | –
87 (≈ 278 µM) | > 10 | 2.93 | 1.41 | 2.07 | 2.54 | 2.03 | 1.55 | 1.88 | 3.01 | COc1ccc2nc(N(Cc3ccccn3)C(C)=O)sc2c1 [Compound 19, N-(6-methoxybenzo[d]thiazol-2-yl)-N-(pyridin-2-ylmethyl)acetamide] | 43 | 2.44 | > 10 | 1.38 | –
< 9 | > 10 | > 10 | > 10 | > 10 | > 10 | > 10 | > 10 | > 10 | > 10 | COc1ccc2nc(N(C=O)Cc3ccc4ccccc4c3)sc2c1 [Compound 18, N-(6-methoxybenzo[d]thiazol-2-yl)-N-(naphthalen-2-ylmethyl)formamide] | 0 | > 10 | > 10 | > 10 | not able to inhibit tubulin polymerization
– | – | – | 0.022 | 0.01 | 0.307 | 0.013 | 0.051 | 0.055 | 0.02 | CC(=O)O[C@@]12CO[C@@H]1C[C@H](O)[C@@]1(C)C(=O)[C@H](O)C3=C(C)[C@@H](OC(=O)[C@H](O)[C@@H](NC(=O)OC(C)(C)C)c4ccccc4)C[C@@](O)([C@@H](OC(=O)c4ccccc4)[C@H]21)C3(C)C [DTX, docetaxel, reference compound] | – | 0.059 | 1.55 | 0.035 | –
